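Exposure lasted 48 hours, with cells grown in 96-well plates and compounds tested at five concentrations. At the GI50, growth is halved. At the TGI there is no net growth.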
Key:
Test in all cases: growth of human tumour cells (NCI), 48 h
786-0 renal = system: 786-0 renal
A498 renal = system: A498 renal
A549 NSCLC = system: A549 NSCLC
ACHN renal = system: ACHN renal
BT-549 breast = system: BT-549 breast
CAKI-1 renal = system: CAKI-1 renal
CCRF-CEM leukemia = system: CCRF-CEM leukemia
COLO 205 colon = system: COLO 205 colon
DU-145 prostate = system: DU-145 prostate
EKVX NSCLC = system: EKVX NSCLC
HCC-2998 colon = system: HCC-2998 colon
HCT-116 colon = system: HCT-116 colon
HCT-15 colon = system: HCT-15 colon
HL-60(TB) leukemia = system: HL-60(TB) leukemia
HOP-62 NSCLC = system: HOP-62 NSCLC
HOP-92 NSCLC = system: HOP-92 NSCLC
HS 578T breast = system: HS 578T breast
HT29 colon = system: HT29 colon
IGROV1 ovarian = system: IGROV1 ovarian
K-562 leukemia = system: K-562 leukemia
KM12 colon = system: KM12 colon
LOX IMVI melanoma = system: LOX IMVI melanoma
M14 melanoma = system: M14 melanoma
MALME-3M melanoma = system: MALME-3M melanoma
MCF7 breast = system: MCF7 breast
MDA-MB-231 breast = system: MDA-MB-231 breast
MDA-MB-435 = system: MDA-MB-435
MOLT-4 leukemia = system: MOLT-4 leukemia
NCI-H226 lung = system: NCI-H226 lung
NCI-H23 lung = system: NCI-H23 lung
NCI-H460 lung = system: NCI-H460 lung
NCI-H522 lung = system: NCI-H522 lung
NCI/ADR-RES ovarian = system: NCI/ADR-RES ovarian
OVCAR-3 ovarian = system: OVCAR-3 ovarian
OVCAR-4 ovarian = system: OVCAR-4 ovarian
OVCAR-5 ovarian = system: OVCAR-5 ovarian
OVCAR-8 ovarian = system: OVCAR-8 ovarian
PC-3 prostate = system: PC-3 prostate
RPMI-8226 leukemia = system: RPMI-8226 leukemia
RXF 393 renal = system: RXF 393 renal
SF-268 CNS = system: SF-268 CNS
SF-295 CNS = system: SF-295 CNS
SF-539 CNS = system: SF-539 CNS
SK-MEL-2 melanoma = system: SK-MEL-2 melanoma
SK-MEL-28 melanoma = system: SK-MEL-28 melanoma
SK-MEL-5 melanoma = system: SK-MEL-5 melanoma
SK-OV-3 ovarian = system: SK-OV-3 ovarian
SN12C renal = system: SN12C renal
SNB-19 CNS = system: SNB-19 CNS
SNB-75 CNS = system: SNB-75 CNS
SR leukemia = system: SR leukemia
SW-620 colon = system: SW-620 colon
T-47D breast = system: T-47D breast
TK-10 renal = system: TK-10 renal
U251 CNS = system: U251 CNS
UACC-257 melanoma = system: UACC-257 melanoma
UACC-62 melanoma = system: UACC-62 melanoma
UO-31 renal = system: UO-31 renal
MDA-N = system: MDA-N

## C=CC(=O)N[C@@H]1CN(c2nc(Nc3cn(C)nc3OC)c3ncn(C)c3n2)C[C@H]1F
786-0 renal
  GI50: 28.1 µM
  TGI: > 100 µM
A498 renal
  GI50: 16.4 µM
  TGI: 67.7 µM
A549 NSCLC
  GI50: 24.5 µM
  TGI: > 100 µM
ACHN renal
  GI50: 0.506 µM
  TGI: > 100 µM
BT-549 breast
  GI50: 28.6 µM
  TGI: > 100 µM
CAKI-1 renal
  GI50: 1.22 µM
  TGI: > 100 µM
CCRF-CEM leukemia
  GI50: 39.4 µM
  TGI: > 100 µM
COLO 205 colon
  GI50: 17.6 µM
  TGI: 48.6 µM
DU-145 prostate
  GI50: 4.02 µM
  TGI: > 91.7 µM
EKVX NSCLC
  GI50: 0.273 µM
  TGI: 97.9 µM
HCC-2998 colon
  GI50: 47.8 µM
  TGI: > 100 µM
HCT-116 colon
  GI50: 27.3 µM
  TGI: > 100 µM
HCT-15 colon
  GI50: 39 µM
  TGI: > 100 µM
HL-60(TB) leukemia
  GI50: 27.8 µM
  TGI: 78.5 µM
HOP-62 NSCLC
  GI50: 26.2 µM
  TGI: > 100 µM
HOP-92 NSCLC
  GI50: 17.3 µM
  TGI: 70.7 µM
HS 578T breast
  GI50: 34 µM
  TGI: > 100 µM
HT29 colon
  GI50: 20.9 µM
  TGI: > 83.1 µM
IGROV1 ovarian
  GI50: 2.61 µM
  TGI: > 72.6 µM
K-562 leukemia
  GI50: 42.9 µM
  TGI: > 100 µM
KM12 colon
  GI50: 33.6 µM
  TGI: > 100 µM
LOX IMVI melanoma
  GI50: 30 µM
  TGI: > 100 µM
M14 melanoma
  GI50: 18.7 µM
  TGI: 61.6 µM
MALME-3M melanoma
  GI50: 23.4 µM
  TGI: > 100 µM
MCF7 breast
  GI50: 17.7 µM
  TGI: > 100 µM
MDA-MB-231 breast
  GI50: 23.8 µM
  TGI: > 88.2 µM
MDA-MB-435
  GI50: 15.8 µM
  TGI: 38.5 µM
MOLT-4 leukemia
  GI50: 39 µM
  TGI: > 100 µM
NCI-H226 lung
  GI50: > 83 µM
  TGI: > 100 µM
NCI-H23 lung
  GI50: 27.5 µM
  TGI: > 100 µM
NCI-H460 lung
  GI50: 34.5 µM
  TGI: > 100 µM
NCI-H522 lung
  GI50: 0.0335 µM
  TGI: 17.7 µM
NCI/ADR-RES ovarian
  GI50: > 100 µM
  TGI: > 100 µM
OVCAR-3 ovarian
  GI50: 19 µM
  TGI: > 88 µM
OVCAR-4 ovarian
  GI50: 26.7 µM
  TGI: > 100 µM
OVCAR-5 ovarian
  GI50: 11.5 µM
  TGI: > 100 µM
OVCAR-8 ovarian
  GI50: 33.6 µM
  TGI: > 100 µM
PC-3 prostate
  GI50: 60.1 µM
  TGI: > 100 µM
RPMI-8226 leukemia
  GI50: > 71.7 µM
  TGI: > 100 µM
RXF 393 renal
  GI50: 34.1 µM
  TGI: > 84.5 µM
SF-268 CNS
  GI50: 21.5 µM
  TGI: > 100 µM
SF-295 CNS
  GI50: 38.9 µM
  TGI: > 100 µM
SF-539 CNS
  GI50: 28.1 µM
  TGI: > 100 µM
SK-MEL-2 melanoma
  GI50: 26.1 µM
  TGI: 78.3 µM
SK-MEL-28 melanoma
  GI50: 50 µM
  TGI: > 100 µM
SK-MEL-5 melanoma
  GI50: 24.8 µM
  TGI: > 59.8 µM
SK-OV-3 ovarian
  GI50: 0.0881 µM
  TGI: > 47.2 µM
SN12C renal
  GI50: 45.9 µM
  TGI: > 100 µM
SNB-19 CNS
  GI50: 27.1 µM
  TGI: > 100 µM
SNB-75 CNS
  GI50: 19.4 µM
  TGI: > 78 µM
SR leukemia
  GI50: 7.57 µM
  TGI: > 91.3 µM
SW-620 colon
  GI50: 26.9 µM
  TGI: > 100 µM
T-47D breast
  GI50: 1.74 µM
  TGI: > 100 µM
TK-10 renal
  GI50: 0.0664 µM
  TGI: 23.9 µM
U251 CNS
  GI50: 39.1 µM
  TGI: > 100 µM
UACC-257 melanoma
  GI50: 35.8 µM
  TGI: > 100 µM
UACC-62 melanoma
  GI50: 23.1 µM
  TGI: > 90.6 µM
UO-31 renal
  GI50: 10.9 µM
  TGI: > 100 µM

## Oc1ccc2ccccc2c1CCc1c(O)ccc2ccccc12
786-0 renal
  TGI: 34.9 µM
A498 renal
  TGI: 38.2 µM
A549 NSCLC
  TGI: 25.3 µM
ACHN renal
  TGI: 30 µM
CAKI-1 renal
  TGI: 20.5 µM
CCRF-CEM leukemia
  TGI: 25.2 µM
COLO 205 colon
  TGI: 29.1 µM
EKVX NSCLC
  TGI: 26.4 µM
HCC-2998 colon
  TGI: 21.8 µM
HCT-116 colon
  TGI: 25.1 µM
HCT-15 colon
  TGI: 28 µM
HL-60(TB) leukemia
  TGI: 40.9 µM
HOP-62 NSCLC
  TGI: 28.2 µM
HOP-92 NSCLC
  TGI: 24.7 µM
HS 578T breast
  TGI: 45.1 µM
HT29 colon
  TGI: 18.6 µM
K-562 leukemia
  TGI: 24.9 µM
KM12 colon
  TGI: 24.8 µM
LOX IMVI melanoma
  TGI: 28 µM
M14 melanoma
  TGI: 29.5 µM
MALME-3M melanoma
  TGI: 26.9 µM
MCF7 breast
  TGI: 26.3 µM
MDA-MB-231 breast
  TGI: 27.5 µM
MDA-MB-435
  TGI: 25.4 µM
MDA-N
  TGI: 27.6 µM
NCI-H226 lung
  TGI: 33.2 µM
NCI-H23 lung
  TGI: 26.1 µM
NCI-H460 lung
  TGI: 22.2 µM
NCI/ADR-RES ovarian
  TGI: 31.1 µM
OVCAR-3 ovarian
  TGI: 17.4 µM
OVCAR-5 ovarian
  TGI: 27.2 µM
OVCAR-8 ovarian
  TGI: 27.6 µM
PC-3 prostate
  TGI: 26.9 µM
RPMI-8226 leukemia
  TGI: 22 µM
RXF 393 renal
  TGI: 27.5 µM
SF-268 CNS
  TGI: 25.2 µM
SF-295 CNS
  TGI: 28.7 µM
SF-539 CNS
  TGI: 30.3 µM
SK-MEL-28 melanoma
  TGI: 22.6 µM
SK-MEL-5 melanoma
  TGI: 25.7 µM
SK-OV-3 ovarian
  TGI: 29.4 µM
SN12C renal
  TGI: 23.3 µM
SNB-19 CNS
  TGI: 32.4 µM
SNB-75 CNS
  TGI: 18.3 µM
SR leukemia
  TGI: 32.6 µM
SW-620 colon
  TGI: 28.4 µM
T-47D breast
  TGI: 12.5 µM
TK-10 renal
  TGI: 32.5 µM
U251 CNS
  TGI: 26 µM
UACC-257 melanoma
  TGI: 27.2 µM
UACC-62 melanoma
  TGI: 21.2 µM

## O=C(O)c1cc2ccccc2c(Cc2c(O)c(C(=O)O)cc3ccccc23)c1O
786-0 renal
  TGI: > 100 µM
A498 renal
  TGI: > 100 µM
A549 NSCLC
  TGI: > 100 µM
ACHN renal
  TGI: > 100 µM
BT-549 breast
  TGI: > 100 µM
CAKI-1 renal
  TGI: > 100 µM
CCRF-CEM leukemia
  TGI: > 100 µM
DU-145 prostate
  TGI: > 100 µM
EKVX NSCLC
  TGI: > 100 µM
HCC-2998 colon
  TGI: > 100 µM
HCT-116 colon
  TGI: > 100 µM
HCT-15 colon
  TGI: > 100 µM
HL-60(TB) leukemia
  TGI: > 100 µM
HOP-62 NSCLC
  TGI: > 100 µM
HOP-92 NSCLC
  TGI: > 100 µM
HS 578T breast
  TGI: > 100 µM
HT29 colon
  TGI: > 100 µM
IGROV1 ovarian
  TGI: > 100 µM
K-562 leukemia
  TGI: > 100 µM
KM12 colon
  TGI: > 100 µM
LOX IMVI melanoma
  TGI: > 100 µM
M14 melanoma
  TGI: > 100 µM
MALME-3M melanoma
  TGI: > 100 µM
MDA-MB-231 breast
  TGI: > 100 µM
MDA-MB-435
  TGI: > 100 µM
MDA-N
  TGI: > 100 µM
MOLT-4 leukemia
  TGI: > 100 µM
NCI-H226 lung
  TGI: > 100 µM
NCI-H23 lung
  TGI: > 100 µM
NCI-H460 lung
  TGI: > 100 µM
NCI-H522 lung
  TGI: > 100 µM
NCI/ADR-RES ovarian
  TGI: > 100 µM
OVCAR-3 ovarian
  TGI: > 100 µM
OVCAR-4 ovarian
  TGI: > 100 µM
OVCAR-5 ovarian
  TGI: > 100 µM
OVCAR-8 ovarian
  TGI: > 100 µM
PC-3 prostate
  TGI: > 100 µM
RPMI-8226 leukemia
  TGI: > 100 µM
RXF 393 renal
  TGI: > 100 µM
SF-268 CNS
  TGI: > 100 µM
SF-295 CNS
  TGI: > 100 µM
SK-MEL-2 melanoma
  TGI: > 100 µM
SK-MEL-28 melanoma
  TGI: > 100 µM
SK-MEL-5 melanoma
  TGI: > 100 µM
SN12C renal
  TGI: > 100 µM
SNB-19 CNS
  TGI: > 100 µM
SR leukemia
  TGI: > 100 µM
SW-620 colon
  TGI: > 100 µM
T-47D breast
  TGI: > 100 µM
TK-10 renal
  TGI: > 100 µM
U251 CNS
  TGI: > 100 µM
UACC-257 melanoma
  TGI: > 100 µM
UACC-62 melanoma
  TGI: > 100 µM
UO-31 renal
  TGI: > 100 µM

— PubChem BioAssay (NCI)
